Six compounds from patent US7737127B2, “2-propynyl adenosine analogs having A2A agonist activity and compositions thereof” (University of Virginia Patent Foundation, priority 2001, dated 2010) can be followed below.

Assay [1] has as its target recombinant human A2A receptors (Homo sapiens, UniProt P29274). As to the kind of experiment: Radioligand competition binding to recombinant human A2A receptors in Sf9 cell membranes. The following applies: A2A ± SEM, Ki from competition binding, Sf9 cell membranes. On the technique in general: Loss of bound radioactivity is the signal in a displacement assay; it reports binding, not function.

Assay [2] has as its target T1, human A1 AR (Homo sapiens, UniProt P30542).
T1 sequence (P30542 1-326): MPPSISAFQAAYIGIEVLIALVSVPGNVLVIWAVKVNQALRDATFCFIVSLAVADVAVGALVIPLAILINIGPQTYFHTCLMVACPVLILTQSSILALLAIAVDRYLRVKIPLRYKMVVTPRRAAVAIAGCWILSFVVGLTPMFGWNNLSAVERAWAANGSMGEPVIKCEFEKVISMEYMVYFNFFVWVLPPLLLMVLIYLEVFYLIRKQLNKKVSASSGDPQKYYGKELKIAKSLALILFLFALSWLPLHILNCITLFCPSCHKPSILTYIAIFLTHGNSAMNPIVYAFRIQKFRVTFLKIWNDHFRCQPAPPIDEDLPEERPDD
As to the kind of experiment: Radioligand competition binding (125I-ABA) to human A1 AR in CHO K1 cell membranes. As to conditions: for Ki: A1 ± SEM, Ki from competition binding, 125I-ABA, CHO K1 cell membranes; for A1/A2A: selectivity ratio A1 over A2A.

Assay [3] deals with human neutrophils. As to the kind of experiment: Human neutrophil oxidative activity, luminol-enhanced chemiluminescence. It counts as cell-based. As to conditions: for EC50: Homo sapiens, Neutrophil, human neutrophil experiment w/o Rolipram, read-out: PMN oxid (-log EC50) (converted); for PMN oxid + roli (-log EC50): human neutrophil experiment w/Rolipram. On the procedure: Chemiluminescence Methods: Lumninol enhanced chemiluminescence, a measure of neutrophil oxidative activity, is dependent upon both superoxide production and mobilization of the granule enzyme myeloperoxidase. The light is emitted from unstable high-energy oxygen species such as hypochlorous acid and singlet oxygen generated by activated neutrophils.
The plate was incubated 5 min (37 C) and then fMLP (50 l in HA; final concentration […]) was added to all wells.
Data are presented as peak chemiluminescence as percent of activity in the absence of an adenosine agonist. The EC50 was determined using PRISM software. All compounds were tested with PMNs from three separate donors.
Lummol-enhanced chemiluminescence, a measure of neutrophil oxidative activity, is dependent upon both superoxide production and mobilization of the lysosomal granule enzyme myeloperoxidase. The light is emitted from unstable high-energy oxygen species generated by activated neutrophils. Purified neutrophils (5-10×10^5/ml) were incubated in Hanks balanced salt solution containing 0.1% human serum albumin (1 ml) with the tested A2A agonist with or without rolipram and with or without tumor necrosis factor-alpha (1 U/ml) for 30 minutes at 37° C. in a shaking water bath. […] Chemiluminescence is reported as relative peak light emitted (=height of the curve) compared to samples with tumor necrosis factor-alpha and without agonist or rolipram.

Assay [4] has as its target T2, A3 AR (Homo sapiens, UniProt P0DMS8).
T2 sequence (P0DMS8 1-318): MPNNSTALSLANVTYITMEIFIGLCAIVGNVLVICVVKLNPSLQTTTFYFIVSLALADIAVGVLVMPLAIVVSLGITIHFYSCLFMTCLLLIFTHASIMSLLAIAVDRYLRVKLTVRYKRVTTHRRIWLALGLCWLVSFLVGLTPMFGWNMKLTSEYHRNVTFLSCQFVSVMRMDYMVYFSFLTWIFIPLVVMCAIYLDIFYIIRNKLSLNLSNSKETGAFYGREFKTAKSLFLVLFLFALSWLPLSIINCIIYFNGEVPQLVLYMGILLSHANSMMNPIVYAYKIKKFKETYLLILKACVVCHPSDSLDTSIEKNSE
Description: Radioligand competition binding (125I-ABA) to human A3 AR in HEK 293 cell membranes. As to conditions: for Ki: A3 ± SEM, Ki from competition binding, 125I-ABA, HEK 293 cell membranes; for A3/A2A: selectivity ratio A3 over A2A.

recombinant human A2A receptors, sequence (P29274 whole entry): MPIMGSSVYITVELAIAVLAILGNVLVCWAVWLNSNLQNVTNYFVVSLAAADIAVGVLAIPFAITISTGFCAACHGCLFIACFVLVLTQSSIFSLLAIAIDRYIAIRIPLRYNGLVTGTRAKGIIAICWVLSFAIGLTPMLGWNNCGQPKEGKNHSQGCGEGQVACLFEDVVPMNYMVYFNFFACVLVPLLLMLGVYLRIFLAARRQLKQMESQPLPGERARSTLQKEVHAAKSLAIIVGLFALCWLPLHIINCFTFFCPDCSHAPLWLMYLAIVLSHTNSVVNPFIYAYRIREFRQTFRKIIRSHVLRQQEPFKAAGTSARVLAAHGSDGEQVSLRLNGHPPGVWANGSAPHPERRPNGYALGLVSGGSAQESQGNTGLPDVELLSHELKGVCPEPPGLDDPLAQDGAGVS

The term Ki denotes the equilibrium dissociation constant of an inhibitor or competing ligand from its target. In general, EC50 refers to the concentration needed to bring the measured effect to its halfway point. As for `CCNC(=O)[C@H]1O[C@@H](n2cnc3c(N)nc(C#CCC4CCC(C(N)=O)CC4)nc32)C(O)C1O` (stereo in doubt) [JR-3055, 5-{6-Amino-2-[3-(4-carbamoyl-cyclohexyl)-prop-1-ynyl]purin-9-yl}-3,4-dihydroxytetrahydrofuran-2-carboxylic acid ethylamide], in assay [1], the Ki is 1.8 ± 0.2 nM. Further, in assay [2], the Ki was 36 ± 2 nM and the A1/A2A came out at 20.0. Also, in assay [3], the concentration giving a half-maximal response (EC50) is 31.6 nM and the “PMN oxid + roli (-log EC50)” value was determined as 8.64. Also, in assay [4], the Ki is 28 ± 3 nM and the A3/A2A stood at 15.6.
Turning to `CCNC(=O)[C@H]1O[C@@H](n2cnc3c(N)nc(C#CCC4CCC(C(=O)NC)CC4)nc32)C(O)C1O` (stereo in doubt) [JR-3065, 5-{6-Amino-2-[3-(4-methylcarbamoyl-cyclohexyl)-prop-1-ynyl]-purin-9-yl}-3,4-dihydroxytetrahydrofuran-2-carboxylic acid ethylamide], in assay [1], the Ki worked out at 3.6 ± 0.5 nM. For the same compound, in assay [2], the Ki was found to be 55 ± 13 nM and the A1/A2A came to 15.3. Besides, in assay [3], the concentration for a half-maximal effect (EC50) was 102 nM and the “PMN oxid + roli (-log EC50)” value amounted to 8.29. Besides, in assay [4], the affinity, expressed as Ki, was 28 ± 13 nM and the A3/A2A is reported as 7.8.
Consider `CCNC(=O)[C@H]1O[C@@H](n2cnc3c(N)nc(C#CCC4CCC(CC)CC4)nc32)C(O)C1O` (stereo in doubt) [JR-3087, 5-{6-Amino-2-[3-(4-ethyl-cyclohexyl)-prop-1-ynyl]-purin-9-yl}-3,4-dihydroxytetrahydrofuran-2-carboxylic acid ethylamide], for which the Ki in assay [1] came out at 2.2 ± 0.2 nM. In addition, in assay [2], the Ki was found to be 20.3 ± 4.5 nM and the A1/A2A stood at 9.2. For the same compound, in assay [3], the EC50 is 46.8 nM and the “PMN oxid + roli (-log EC50)” value is recorded as 8.51. Moreover, in assay [4], the Ki is 17.8 ± 5.5 nM and the A3/A2A came to 8.1.
Turning to `CCNC(=O)[C@H]1O[C@@H](n2cnc3c(N)nc(C#CCC4CCC(C(C)=O)CC4)nc32)C(O)C1O` (stereo in doubt) [JR-3119, 5-{2-[3-(4-Acetyl-cyclohexyl)-prop-1-ynyl]-6-aminopurin-9-yl}-3,4-dihydroxytetrahydrofuran-2-carboxylic acid ethylamide], the inhibition constant (Ki) in assay [1] was determined as 2.4 ± 0.2 nM. In assay [2], the affinity corresponds to a Ki of 28.7 ± 3.3 nM and the A1/A2A was found to be 11.9. In assay [3], the half-maximal effective concentration (EC50) was 28.8 nM and the “PMN oxid + roli (-log EC50)” value is recorded as 8.7. Further, in assay [4], the Ki turned out to be 18.6 ± 4.4 nM and the A3/A2A came to 7.7.
With `CCNC(=O)[C@H]1O[C@@H](n2cnc3c(N)nc(C#CCC4CCC(C(C)O)CC4)nc32)C(O)C1O` (stereo in doubt) [JR-3121, 5-(6-Amino-2-{3-[4-(1-hydroxy-ethyl)-cyclohexyl]-prop-1-ynyl}-purin-9-yl)-3,4-dihydroxytetrahydrofuran-2-carboxylic acid ethylamide], the Ki in assay [1] was 5.7 ± 0.6 nM. In assay [2], affinity was put at a Ki of 52.3 ± 7.6 nM and the A1/A2A is recorded as 9.3. Moreover, in assay [3], the EC50 is 105 nM and the “PMN oxid + roli (-log EC50)” value was 8.31. Besides, in assay [4], the affinity corresponds to a Ki of 71 ± 16 nM and the A3/A2A is given as 12.6.
`CCNC(=O)[C@H]1O[C@@H](n2cnc3c(N)nc(C#CC(O)(C4CCCCC4)C4CCCCC4)nc32)C(O)C1O` (stereo in doubt) [JR-3139, 5-[6-Amino-2-(3,3-dicyclohexyl-3-hydroxy-prop-1-ynyl)-purin-9-yl]-3,4-dihydroxytetrahydrofuran-2-carboxylic acid ethylamide]: in assay [1], the Ki is 166 ± 42 nM. In assay [2], affinity was put at a Ki of 801 ± 99 nM and the A1/A2A was 4.8. Also, in assay [3], the EC50 was 4070 nM and the “PMN oxid + roli (-log EC50)” value came to 6.75. For the same compound, in assay [4], the Ki stood at 83.7 ± 30 nM and the A3/A2A turned out to be 0.5.
